Measured values published in EP0202903A2, “Control of ectoparasites” (priority 1985, dated 1986).

System: guinea pigs
Assay: Guinea pig systemic test: death of the treated guinea pig before blood sampling
Format: in vivo
Method: Adult guinea pigs were used in this test system. The compounds to be tested were dissolved in aqueous polyvinyl pyrrolidone or in polyethylene glycol 200, and an appropriate amount of the solution was administered by intraperitoneal injection. Various doses of the compound were used, as named in the tables below.
Blood was drawn from the guinea pigs at different times, shown in the tables below, and the samples of blood were centrifuged. Dental wicks were saturated with the blood serum, and were then exposed in Petri dishes to adult stable flies or adult house flies; blow fly larvae were exposed in test tubes. Various species were used in various tests. After 24 hours, the insects were examined, and the number of dead were counted.

[1] = 10 mg./kg. intraperitoneal, sampling at 6 hours
[2] = 10 mg./kg. intraperitoneal, sampling at 24 hours
[3] = 25 mg./kg. intraperitoneal, sampling at 6 hours
[4] = 100 mg./kg. intraperitoneal, sampling at 24 hours
[5] = 25 mg./kg. intraperitoneal, sampling at 2 hours
[6] = 25 mg./kg. intraperitoneal, sampling at 48 hours

Measured: Dead (guinea pig died before its blood was sampled)

O=C(CC(=O)C(F)(F)C(F)(F)C(F)(F)F)c1ccc(Cl)s1 [Example 1, 1-(5-Chlorothien-2-yl)-3-perfluoropropyl-1,3-propanedione]
Dead: 5 mg./kg. intraperitoneal, sampling at 24 hours | [1] | [2] | 10 mg./kg. intraperitoneal, sampling at 48 hours | 25 mg./kg. intraperitoneal, sampling at 4 hours | [3] | 30 mg./kg. intraperitoneal, sampling at 6 hours | 40 mg./kg. intraperitoneal, sampling at 6 hours | 50 mg./kg. intraperitoneal, sampling at 4 hours | 50 mg./kg. intraperitoneal, sampling at 6 hours | 50 mg./kg. intraperitoneal, sampling at 24 hours | [4]

O=C(CC(=O)C(F)(F)C(F)(F)C(F)(F)F)c1cc(Cl)sc1Cl [Example 3, 1-(2,5-Dichlorothien-3-yl)-3-perfluoropropyl-1,3-propanedione]
Dead: [2] | [3] | 25 mg./kg. intraperitoneal, sampling at 24 hours

O=C(CC(=O)C(F)(F)C(F)(F)C(F)(F)F)c1ccc([N+](=O)[O-])cc1.[Na] [Example 4, 1-(4-Nitrophenyl)-3-perfluoropropyl-1,3-propanedione, sodium salt]
Dead: [4]

O=C(CC(=O)C1(F)C(F)(F)C(F)(F)C(F)(F)C(F)(F)C1(F)F)c1ccc(Cl)s1 [Example 5, 1-(5-Chlorothien-2-yl)-3-perfluorocyclo-hexyl-1,3-propanedione]
Dead: 25 mg./kg. intraperitoneal, sampling at 5 hours

O=C(CC(=O)C(F)(F)C(F)(F)C(F)(F)F)c1cc(Cl)c(Cl)s1 [Example 7, l-(4,5-Dichlorothien-2-yl)-3-perfluoropropyl-1,3-propanedione]
Dead: [2]

O=C(CC(=O)C(F)(F)C(F)(F)C(F)(F)F)c1ccc(Cl)cc1 [Example 8, 1-(4-Chlorophenyl)-3-perfluoropropyl-1,3-propanedione]
Dead: 10 mg./kg. intraperitoneal, sampling at 5 hours | [5] | [6] | 50 mg./kg. intraperitoneal, sampling at 2 hours | 100 mg./kg. intraperitoneal, sampling at 2 hours

O=C(CC(=O)C(F)(F)C(F)(F)C(F)(F)F)c1cccc(C(F)(F)F)c1.[Na] [Example 12, 1-Perfluoropropyl-3-(3-trifluoromethylphenyl)-1,3-propanedione, sodium salt]
Dead: [3] | [6]

O=C(CC(=O)C(F)(F)C(F)(F)C(F)(F)F)c1ccc(C(F)(F)F)cc1.[Na] [Example 13, 1-Perfluoropropyl-3-(4-trifluoromethylphenyl)-1,3-propanedione, sodium salt]
Dead: [5]

O=C(CC(=O)C(F)(F)C(F)(F)C(F)(F)F)c1ccc(C(F)(F)F)cc1 [Example 14, 1-Perfluoropropyl-3-(4-trifluoromethylphenyl)-1,3-propanedione]
Dead: 5 mg./kg. intraperitoneal, sampling at 5 hours | 5 mg./kg. intraperitoneal, sampling at 48 hours | [1] | [3]
